From paper PMC8072159, “5-Bis-(2,6-difluoro-benzylidene) Cyclopentanone Acts as a Selective 11β-Hydroxysteroid Dehydrogenase one Inhibitor to Treat Diet-Induced Nonalcoholic Fatty Liver Disease in Mice” (Frontiers in Pharmacology, 2021)

Key:
[1] = tested on: human 11β-HSD1; design: method as in Lin et al., 2013; conditions: ref Lin et al., 2013; cited from earlier work
[2] = tested on: rat 11β-HSD1; design: method as in Lin et al., 2013; conditions: ref Lin et al., 2013; cited from earlier work

Structure (SMILES)	melting point [°C]	IC50 [1] [nM]	IC50 [2] [nM]
O=C1C(=Cc2ccccc2Br)CCC1=Cc1ccccc1Br [5-bis-(2-bromo-benzylidene) cyclopentanone]	–	346	148
Cc1ccc(/C=C2\CC/C(=C\c3ccc(C)cc3C)C2=O)c(C)c1 [WZS03, (2E,5E)-2,5-bis(2,4-dimethylbenzylidene) Cyclopentanone]	128.8 to 131.8	–	–
COc1cc(OC)c(/C=C2\CC/C(=C\c3c(OC)cc(OC)cc3OC)C2=O)c(OC)c1 [WZS05, (2E,5E)-2,5-bis(2,4,6-Trimethoxybenzylidene) Cyclopentanone]	195 to 197.8	–	–
O=C1/C(=C/c2cc(F)ccc2F)CC/C1=C\c1cc(F)ccc1F [WZS07, (2E,5E)-2,5-bis(2,5-difluorobenzylidene) Cyclopentanone]	208.1 to 209.8	–	–

More lines, main results first:

melting point [°C]	Structure (SMILES)	IC50 [1] [nM]	IC50 [2] [nM]
209.4 to 212	O=C1/C(=C/c2ccc(Cl)cc2Cl)CC/C1=C\c1ccc(Cl)cc1Cl [WZS01, (2E,5E)-2,5-bis(2,4-dichlorobenzylidene) Cyclopentanone]	–	–
204.6 to 206.8	O=C1/C(=C/c2cccc(Cl)c2Cl)CC/C1=C\c1cccc(Cl)c1Cl [WZS04, (2E,5E)-2,5-bis(2,3-dichlorobenzylidene) Cyclopentanone]	–	–
